According to US9981916B2 (Genentech, Inc., priority 2013, dated 2018):

Target: T1, RORc ligand binding domain (Homo sapiens, UniProt P51449)
T1 construct: host or cells: E. coli
T1 sequence (P51449 269-508 limits assumed): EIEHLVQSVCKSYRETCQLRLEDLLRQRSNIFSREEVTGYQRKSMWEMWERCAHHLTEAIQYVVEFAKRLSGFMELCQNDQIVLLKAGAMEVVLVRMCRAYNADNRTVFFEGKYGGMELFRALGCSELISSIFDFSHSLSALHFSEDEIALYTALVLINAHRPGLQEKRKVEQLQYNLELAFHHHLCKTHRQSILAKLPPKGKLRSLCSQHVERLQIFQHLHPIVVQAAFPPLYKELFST
Assay: In vitro RORc ligand binding assay (25-[3H]hydroxycholesterol displacement, filter binding)
Conditions: 6 nM 25-[3H]hydroxycholesterol, 0.6 ug/mL RORc receptor, 3 h at 25° C.
Procedure, shortened: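 Compounds in 5% DMSO, either dose-response or screened at 1 and 10 uM, competed with 6 nM 25-[3H]hydroxycholesterol for 0.6 ug/mL RORc over 3 h at 25° C (HEPES pH 7.4, NaCl, MgCl2, DTT, BSA buffer). Bound tracer was filter-harvested and counted; nonspecific binding came from 1 uM 25-hydroxycholesterol.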

| Structure (SMILES) | IC50 [nM] |
| --- | --- |
| CC1(C)[C@H]2CC[C@]1(C(=O)N1CC(O)C1)c1nnc(-c3c(F)cccc3F)cc12 [Example 199, ((5R,8R)-3-(2,6-difluorophenyl)-9,9-dimethyl-5,6,7,8-tetrahydro-5,8-methanocinnolin-8-yl)(3-hydroxyazetidin-1-yl)methanone] | 461 |
| CC1(C)[C@H]2CC[C@]1(NS(C)(=O)=O)c1nnc(-c3c(F)cccc3F)cc12 [Example 282, N-((5R,8R)-3-(2,6-difluorophenyl)-9,9-dimethyl-5,6,7,8-tetrahydro-5,8-methanocinnolin-8-yl)methanesulfonamide] | 984 |
| CC1(C)[C@@H]2CC[C@@]1(c1nnco1)c1nnc(-c3c(F)cccc3F)cc12 [Example 110, (5S,8S)-3-(2,6-difluorophenyl)-9,9-dimethyl-8-(1,3,4-oxadiazol-2-yl)-5,6,7,8-tetrahydro-5,8-methanocinnoline] | 186 |
| CCN(C[C@@]12CC[C@@H](c3cc(-c4c(F)cccc4F)nnc31)C2(C)C)C(N)=O [Example 159, 1-(((5R,8S)-3-(2,6-difluorophenyl)-9,9-dimethyl-5,6,7,8-tetrahydro-5,8-methanocinnolin-8-yl)methyl)-1-ethylurea] | 26 |
| Cc1nnc(N(C)[C@@]23CC[C@@H](c4cc(-c5ccccc5F)nnc42)C3(C)C)o1 [Example 230, N-((5R,8R)-3-(2-fluorophenyl)-9,9-dimethyl-5,6,7,8-tetrahydro-5,8-methanocinnolin-8-yl)-N,5-dimethyl-1,3,4-oxadiazol-2-amine] | 1820 |
| CC(C)C(=O)N[C@@]12CC[C@@H](c3cc(-c4ccccc4F)nnc31)C2(C)C [Example 87, N-[(5R,8R)-3-(2-fluorophenyl)-9,9-dimethyl-6,7-dihydro-5,8-methanocinnolin-8(5H)-yl]-2-methylpropanamide] | 5190 |
| COCC1CN(C(=O)[C@@]23CC[C@@H](c4cc(-c5c(F)cccc5F)nnc42)C3(C)C)C1 [Example 137, ((5R,8R)-3-(2,6-difluorophenyl)-9,9-dimethyl-5,6,7,8-tetrahydro-5,8-methanocinnolin-8-yl)(3-(methoxymethyl)azetidin-1-yl)methanone] | 182 |
| CC1(C)[C@@H]2CC[C@@]1(C(=O)N1CC(F)(F)C1)c1nnc(-c3c(F)cccc3F)cc12 [Example 139, (3,3-difluoroazetidin-1-yl)((5S,8S)-3-(2,6-difluorophenyl)-9,9-dimethyl-5,6,7,8-tetrahydro-5,8-methanocinnolin-8-yl)methanone] | 30 |
| CN(C(=O)[C@]12CC[C@H](c3cc(-c4c(F)cccc4F)nnc31)C2(C)C)C1CCC1 [Example 70, (5S,8S)-N-cyclobutyl-3-(2,6-difluorophenyl)-N,9,9-trimethyl-6,7-dihydro-5,8-methanocinnoline-8(5H)-carboxamide] | 215 |
| Cc1cnc([C@@]23CC[C@@H](c4cc(-c5c(F)cccc5F)nnc42)C3(C)C)o1 [Example 112, (5R,8R)-3-(2,6-difluorophenyl)-9,9-dimethyl-8-(5-methyl-1,3-oxazol-2-yl)-5,6,7,8-tetrahydro-5,8-methanocinnoline] | 27 |
| CC1(C)[C@H]2CC[C@]1(Cn1ccccc1=O)c1nnc(-c3c(F)cccc3F)cc12 [Example 121, 1-{[(5R,8S)-3-(2,6-difluorophenyl)-9,9-dimethyl-6,7-dihydro-5,8-methanocinnolin-8(5H)-yl]methyl}pyridin-2(1H)-one] | 199 |
| Cc1noc([C@]23CC[C@H](c4cc(-c5c(F)cccc5F)nnc42)C3(C)C)n1 [Example 60, (5S,8S)-3-(2,6-difluorophenyl)-9,9-dimethyl-8-(3-methyl-1,2,4-oxadiazol-5-yl)-5,6,7,8-tetrahydro-5,8-methanocinnoline] | 415 |
| CC1(O)CCN(C(=O)[C@]23CC[C@H](c4cc(-c5c(F)cccc5F)nnc42)C3(C)C)C1 (stereo partly drawn) [Example 219, ((5S,8S)-3-(2,6-difluorophenyl)-9,9-dimethyl-5,6,7,8-tetrahydro-5,8-methanocinnolin-8-yl)(3-hydroxy-3-methylpyrrolidin-1-yl)methanone] | 1100 |
| CC1(C)[C@H]2CC[C@]1(c1nnc(CO)o1)c1nnc(-c3c(F)cccc3F)cc12 [Example 68, {5-[(5R,8R)-3-(2,6-difluorophenyl)-9,9-dimethyl-6,7-dihydro-5,8-methanocinnolin-8(5H)-yl]-1,3,4-oxadiazol-2-yl}methanol] | 116 |
| CC1(C)[C@H]2CC[C@]1(C(=O)N1CC(c3cc[nH]n3)C1)c1nnc(-c3ccccc3F)cc12 [Example 182, (3-(1H-pyrazol-3-yl)azetidin-1-yl)((5R,8R)-3-(2-fluorophenyl)-9,9-dimethyl-5,6,7,8-tetrahydro-5,8-methanocinnolin-8-yl)methanone] | 3000 |
| CC1(C)[C@H]2CC[C@]1(C)c1nnc(Oc3c(F)cccc3F)cc12 [Example 99, (5R,8S)-3-(2,6-difluorophenoxy)-8,9,9-trimethyl-5,6,7,8-tetrahydro-5,8-methanocinnoline] | 280 |
| CN(C(=O)[C@]12CC[C@H](c3cc(-c4c(F)cccc4F)nnc31)C2(C)C)c1ccccn1 [Example 265, (5S,8S)-3-(2,6-difluorophenyl)-N,9,9-trimethyl-N-(pyridin-2-yl)-5,6,7,8-tetrahydro-5,8-methanocinnoline-8-carboxamide] | 1040 |

Further molecules by falling IC50, results first:

| IC50 [nM] | Structure (SMILES) |
| --- | --- |
| 5170 | CN(C)C(=O)C[C@]12CC[C@H](c3cc(-c4ccccc4F)nnc31)C2(C)C [Example 36, 2-[(5S,8S)-3-(2-fluorophenyl)-9,9-dimethyl-6,7-dihydro-5,8-methanocinnolin-8(5H)-yl]-N,N-dimethylacetamide] |
| 3090 | CC1(C)[C@@H]2CC[C@@]1(C(=O)N1CCC[C@H]1C(N)=O)c1nnc(-c3c(F)cccc3F)cc12 [Example 250, (S)-1-((5S,8S)-3-(2,6-difluorophenyl)-9,9-dimethyl-5,6,7,8-tetrahydro-5,8-methanocinnoline-8-carbonyl)pyrrolidine-2-carboxamide] |
| 2240 | CN(C(=O)OC(C)(C)C)[C@]12CC[C@H](c3cc(-c4c(F)cccc4F)nnc31)C2(C)C [Example 280, tert-butyl ((5S,8S)-3-(2,6-difluorophenyl)-9,9-dimethyl-5,6,7,8-tetrahydro-5,8-methanocinnolin-8-yl)(methyl)carbamate] |
| 1500 | CC1(C)[C@@H]2CC[C@@]1(C(=O)NC1CCC1)c1nnc(-c3ccccc3F)cc12 [Example 333, (5S,8S)-N-cyclobutyl-3-(2-fluorophenyl)-9,9-dimethyl-5,6,7,8-tetrahydro-5,8-methanocinnoline-8-carboxamide] |
| 1430 | CNC(=O)[C@H]1[C@@H]2CN(C(=O)[C@]34CC[C@H](c5cc(-c6c(F)cccc6F)nnc53)C4(C)C)C[C@@H]21 [Example 222, (1R,5S,6S)-3-((5S,8S)-3-(2,6-difluorophenyl)-9,9-dimethyl-5,6,7,8-tetrahydro-5,8-methanocinnoline-8-carbonyl)-N-methyl-3-azabicyclo[3.1.0]hexane-6-carboxamide] |
| 1410 | CC1(C)[C@H]2CC[C@]1(C(=O)N1CC(F)(F)C1)c1nnc(-c3ccccc3F)cc12 [Example 172, (3,3-difluoroazetidin-1-yl)((5R,8R)-3-(2-fluorophenyl)-9,9-dimethyl-5,6,7,8-tetrahydro-5,8-methanocinnolin-8-yl)methanone] |
| 1380 | Cc1nnc(OC(=O)[C@]23CC[C@H](c4cc(-c5c(F)cccc5F)nnc42)C3(C)C)o1 [Example 270, (5S,8S)-5-methyl-1,3,4-oxadiazol-2-yl 3-(2,6-difluorophenyl)-9,9-dimethyl-5,6,7,8-tetrahydro-5,8-methanocinnoline-8-carboxylate] |
| 961 | CC1(C)[C@@H]2CC[C@@]1(N1CCCC1=O)c1nnc(-c3c(F)cccc3F)cc12 [Example 253, 1-((5S,8S)-3-(2,6-difluorophenyl)-9,9-dimethyl-5,6,7,8-tetrahydro-5,8-methanocinnolin-8-yl)pyrrolidin-2-one] |
| 726 | CN(C)C(=O)C1CCN(C(=O)[C@]23CC[C@H](c4cc(-c5c(F)cccc5F)nnc42)C3(C)C)C1 (stereo partly drawn) [Example 211, 1-((5S,8S)-3-(2,6-difluorophenyl)-9,9-dimethyl-5,6,7,8-tetrahydro-5,8-methanocinnoline-8-carbonyl)-N,N-dimethylpyrrolidine-3-carboxamide] |
| 222 | CC1(C)[C@H]2CC[C@]1(c1cnco1)c1nnc(-c3c(F)cccc3F)cc12 [Example 104, (5R,8R)-3-(2,6-difluorophenyl)-9,9-dimethyl-8-(1,3-oxazol-5-yl)-5,6,7,8-tetrahydro-5,8-methanocinnoline] |
| 121 | CC(=O)OCCN(C[C@@]12CC[C@@H](c3cc(-c4c(F)cccc4F)nnc31)C2(C)C)C(C)=O [Example 290, 2-(N-(((5R,8S)-3-(2,6-difluorophenyl)-9,9-dimethyl-5,6,7,8-tetrahydro-5,8-methanocinnolin-8-yl)methyl)acetamido)ethyl acetate] |
| 32 | CCN(C[C@]12CC[C@H](c3cc(-c4c(F)cccc4F)nnc31)C2(C)C)C(=O)CCNC(N)=O [Example 343, N-(((5S,8R)-3-(2,6-difluorophenyl)-9,9-dimethyl-5,6,7,8-tetrahydro-5,8-methanocinnolin-8-yl)methyl)-N-ethyl-3-ureidopropanamide] |
| 12 | CCN(C[C@@]12CC[C@@H](c3cc(-c4c(F)cccc4F)nnc31)C2(C)C)c1cncc(=O)[nH]1 [Example 323, 6-((((5R,8S)-3-(2,6-difluorophenyl)-9,9-dimethyl-5,6,7,8-tetrahydro-5,8-methanocinnolin-8-yl)methyl)(ethyl)amino) pyrazin-2(1H)-one] |
